Molecules are shown by their SMILES.

Results on eleven compounds are retold here after patent publication US20240101559A1, “TRICYCLIC KINASE INHIBITORS AND USES THEREOF” (DANA-FARBER CANCER INSTITUTE, INC., priority 2019, published 2024).

Series [1] is described as follows: Commercial microsome stability assay (half-life analysis). Format: in vitro ADME. The conditions noted are these: mouse liver microsomes; read-out: half-life in mouse liver microsomes (MLM).
The subject of series [2] is CDK11/cycK. The series is described as follows: NanoBRET assay, CDK11/cycK. Format: cell-based. The conditions noted are these: live cells, read-out: inhibition of CDK11/cycK interaction. From the text:
(§1) The NanoBRET™ assay (Promega Corporation) is a bioluminescence resonance energy transfer (BRET)-based assay that uses NanoLuc® Luciferase as the BRET energy donor and HaloTag® protein labeled with the HaloTag® NanoBRET™ 618 fluorescent Ligand as the energy acceptor to measure the interaction of two binding partners in live cells.

The target in series [3] is JAK2 (Homo sapiens (Human), UniProt O60674). Kind of series: JAK2 Z-Lyte biochemical assay. The conditions noted are these: commercial JAK2 Z-Lyte assay from Invitrogen. The method, then: Example 3. JAK2 Z-Lyte Biochemical Assay of the Compounds of the Present Disclosure
The JAK2 Z-Lyte biochemical assay was performed according to manufacturer's instructions (Life Technologies).

Series [4] concerns CDK11/CycL. The series is described as follows: NanoBRET assay, CDK11/CycL. Format: cell-based. As to conditions: live cells, read-out: inhibition of CDK11/CycL interaction.
Text: as §1

Series [5] deals with CDK11A (Homo sapiens (Human), UniProt Q9UQ88). The series is described as follows: Competition binding assay (kinase-tagged phage, qPCR). The conditions noted are these: 11 serial threefold dilutions, read-out: inhibition on CDK11A, IC50. How it is done: Compounds of the present disclosure were analyzed with a competition binding assay with three components: a kinase-tagged phage, a compound of the present disclosure, and an immobilized ligand that the test compound competes with to displace the kinase. The amount of kinase bound to the immobilized ligand is determined using quantitative PCR of the DNA tag. Kd values (nM) reported for each compound were determined using 11 serial threefold dilutions of test compound and a DMSO control.

The target in series [6] is DDR1 (Homo sapiens (Human), UniProt Q08345). Kind of series: KINOMEscan kinase selectivity profiling. Format: binding. As to conditions: DDR1, 1 μM; read-out: Ambit KINOMEscan (percent control %). From the text: (§2) Example 7. In Vitro Kinase Selectivity Profiling of the Compounds of the Present Disclosure
The target of series [7] is CDC2L2 (Homo sapiens (Human), UniProt Q9UQ88). The series is described as follows: KINOMEscan kinase selectivity profiling. The conditions noted are these: CDC2L2, 1 μM; read-out: Ambit KINOMEscan (percent control %). Format: binding.
Text: as §2

Series [8] has as its target CSF1R (Homo sapiens (Human), UniProt P07333). The series is described as follows: KINOMEscan kinase selectivity profiling. The conditions noted are these: read-out: Ambit KINOMEscan (percent control %). Format: binding.
Text: as §2

In series [9] the target is BRAF (Homo sapiens (Human), UniProt P15056). Kind of series: KINOMEscan kinase selectivity profiling. The conditions noted are these: read-out: Ambit KINOMEscan (percent control %). Format: binding.
Text: as §2

The target in series [10] is BRAF(V600E) (Homo sapiens (Human), UniProt P15056, V600E). Kind of series: KINOMEscan kinase selectivity profiling. Format: binding. As to conditions: read-out: Ambit KINOMEscan (percent control %).
Text: as §2

For series [11], the target named is PDGFRB (Homo sapiens (Human), UniProt P09619). Kind of series: KINOMEscan kinase selectivity profiling. Format: binding. As to conditions: read-out: Ambit KINOMEscan (percent control %).
Text: as §2

Series [12] has as its target KIT(L576P) (Homo sapiens (Human), UniProt P10721, L576P). Kind of series: KINOMEscan kinase selectivity profiling. Format: binding. As to conditions: read-out: Ambit KINOMEscan (percent control %).
Text: as §2

The target of series [13] is DDR2 (Homo sapiens (Human), UniProt Q16832). The series is described as follows: KINOMEscan kinase selectivity profiling. Format: binding. As to conditions: DDR2, 1 μM; read-out: Ambit KINOMEscan (percent control %).
Text: as §2

For series [14], the target named is CDK11B (Homo sapiens (Human), UniProt P21127). The series is described as follows: KINOMEscan kinase selectivity profiling. Format: binding. The conditions noted are these: read-out: Ambit KINOMEscan (percent control %).
Text: as §2

In series [15] the target is TAOK2 (Homo sapiens (Human), UniProt Q9UL54). Kind of series: KINOMEscan kinase selectivity profiling. Format: binding. The conditions noted are these: TAOK2, 1 μM; read-out: Ambit KINOMEscan (percent control %).
Text: as §2

Series [16] has as its system cell lines or patient-derived xenografts from patients with CRLF2-rearranged B-ALL. As to conditions: cited from earlier work.

JAK2, sequence (O60674 whole entry): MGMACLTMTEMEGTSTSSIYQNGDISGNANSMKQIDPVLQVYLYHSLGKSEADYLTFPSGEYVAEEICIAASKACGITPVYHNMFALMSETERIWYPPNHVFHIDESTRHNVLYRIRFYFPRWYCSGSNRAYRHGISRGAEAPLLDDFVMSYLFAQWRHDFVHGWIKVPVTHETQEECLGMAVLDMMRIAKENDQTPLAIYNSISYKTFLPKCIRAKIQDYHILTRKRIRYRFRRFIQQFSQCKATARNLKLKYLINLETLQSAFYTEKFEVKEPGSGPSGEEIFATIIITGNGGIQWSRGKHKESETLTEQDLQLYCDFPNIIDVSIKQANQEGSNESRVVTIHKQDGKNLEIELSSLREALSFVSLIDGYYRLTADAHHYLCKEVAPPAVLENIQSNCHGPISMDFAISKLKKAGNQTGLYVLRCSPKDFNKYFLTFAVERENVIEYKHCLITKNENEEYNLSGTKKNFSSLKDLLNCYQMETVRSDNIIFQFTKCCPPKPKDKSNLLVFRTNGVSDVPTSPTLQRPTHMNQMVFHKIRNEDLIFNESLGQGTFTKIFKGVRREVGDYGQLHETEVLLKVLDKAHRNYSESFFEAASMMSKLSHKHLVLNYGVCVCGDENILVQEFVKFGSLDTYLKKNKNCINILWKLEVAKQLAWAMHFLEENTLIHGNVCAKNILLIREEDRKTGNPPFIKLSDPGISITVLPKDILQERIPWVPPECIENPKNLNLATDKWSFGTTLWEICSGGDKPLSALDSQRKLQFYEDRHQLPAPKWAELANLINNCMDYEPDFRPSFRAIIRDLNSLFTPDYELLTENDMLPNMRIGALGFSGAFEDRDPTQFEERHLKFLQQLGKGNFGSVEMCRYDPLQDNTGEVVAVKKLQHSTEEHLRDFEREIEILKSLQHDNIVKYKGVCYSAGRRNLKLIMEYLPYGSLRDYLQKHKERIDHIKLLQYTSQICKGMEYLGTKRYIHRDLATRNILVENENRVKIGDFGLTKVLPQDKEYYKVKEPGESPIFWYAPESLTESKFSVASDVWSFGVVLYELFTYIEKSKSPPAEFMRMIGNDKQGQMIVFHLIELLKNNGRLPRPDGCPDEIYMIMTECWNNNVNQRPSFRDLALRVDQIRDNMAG
DDR2, sequence (Q16832 22-855): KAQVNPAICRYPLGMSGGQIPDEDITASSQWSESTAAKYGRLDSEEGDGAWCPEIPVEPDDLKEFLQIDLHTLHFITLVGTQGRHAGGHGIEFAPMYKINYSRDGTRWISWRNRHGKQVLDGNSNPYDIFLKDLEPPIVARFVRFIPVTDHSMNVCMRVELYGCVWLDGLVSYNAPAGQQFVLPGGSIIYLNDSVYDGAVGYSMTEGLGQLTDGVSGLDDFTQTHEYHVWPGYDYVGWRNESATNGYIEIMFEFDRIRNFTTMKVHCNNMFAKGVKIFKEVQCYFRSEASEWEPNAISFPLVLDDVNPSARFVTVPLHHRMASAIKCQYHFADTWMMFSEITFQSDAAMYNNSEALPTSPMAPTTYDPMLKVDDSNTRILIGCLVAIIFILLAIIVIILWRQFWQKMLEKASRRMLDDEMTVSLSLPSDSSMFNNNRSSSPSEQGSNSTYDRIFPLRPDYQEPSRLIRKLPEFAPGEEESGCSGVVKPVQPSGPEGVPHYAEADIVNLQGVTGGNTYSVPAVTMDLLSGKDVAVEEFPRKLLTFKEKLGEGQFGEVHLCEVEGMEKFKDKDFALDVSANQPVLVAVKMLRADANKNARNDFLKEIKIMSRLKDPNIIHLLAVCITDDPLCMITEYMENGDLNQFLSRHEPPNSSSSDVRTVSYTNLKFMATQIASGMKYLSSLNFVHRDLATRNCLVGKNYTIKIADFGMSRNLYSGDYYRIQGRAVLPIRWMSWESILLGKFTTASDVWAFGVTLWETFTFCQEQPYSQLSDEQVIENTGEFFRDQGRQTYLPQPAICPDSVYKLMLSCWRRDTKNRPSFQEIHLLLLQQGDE
PDGFRB, sequence (P09619 33-1106): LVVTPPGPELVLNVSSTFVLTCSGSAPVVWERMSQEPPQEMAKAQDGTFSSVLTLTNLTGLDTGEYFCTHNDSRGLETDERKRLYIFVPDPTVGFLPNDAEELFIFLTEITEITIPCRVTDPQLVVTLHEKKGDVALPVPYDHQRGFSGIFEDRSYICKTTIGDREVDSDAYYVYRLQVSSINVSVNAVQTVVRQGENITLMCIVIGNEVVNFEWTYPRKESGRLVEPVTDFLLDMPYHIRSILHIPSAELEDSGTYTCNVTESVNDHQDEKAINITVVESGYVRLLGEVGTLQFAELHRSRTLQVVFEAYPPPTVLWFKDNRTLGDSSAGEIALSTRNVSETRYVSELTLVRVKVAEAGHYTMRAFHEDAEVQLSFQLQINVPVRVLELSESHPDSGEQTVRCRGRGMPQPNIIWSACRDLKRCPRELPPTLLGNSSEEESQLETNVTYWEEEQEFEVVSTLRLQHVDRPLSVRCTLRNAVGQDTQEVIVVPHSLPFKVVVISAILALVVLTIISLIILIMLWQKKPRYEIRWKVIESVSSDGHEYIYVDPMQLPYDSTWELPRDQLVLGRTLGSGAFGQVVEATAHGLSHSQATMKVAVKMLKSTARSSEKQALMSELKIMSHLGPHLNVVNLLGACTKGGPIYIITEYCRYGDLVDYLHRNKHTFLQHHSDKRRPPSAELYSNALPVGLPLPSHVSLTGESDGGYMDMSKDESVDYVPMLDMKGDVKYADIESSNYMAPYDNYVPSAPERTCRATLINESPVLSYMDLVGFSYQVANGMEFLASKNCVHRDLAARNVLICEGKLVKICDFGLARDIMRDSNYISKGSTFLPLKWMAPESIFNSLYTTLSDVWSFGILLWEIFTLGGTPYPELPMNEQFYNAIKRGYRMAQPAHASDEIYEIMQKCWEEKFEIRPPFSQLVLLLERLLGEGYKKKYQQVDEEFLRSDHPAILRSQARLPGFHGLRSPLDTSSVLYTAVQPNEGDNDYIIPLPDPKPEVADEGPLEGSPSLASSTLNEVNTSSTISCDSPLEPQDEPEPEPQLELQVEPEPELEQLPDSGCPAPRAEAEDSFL
KIT(L576P), sequence (P10721 26-976 L576P): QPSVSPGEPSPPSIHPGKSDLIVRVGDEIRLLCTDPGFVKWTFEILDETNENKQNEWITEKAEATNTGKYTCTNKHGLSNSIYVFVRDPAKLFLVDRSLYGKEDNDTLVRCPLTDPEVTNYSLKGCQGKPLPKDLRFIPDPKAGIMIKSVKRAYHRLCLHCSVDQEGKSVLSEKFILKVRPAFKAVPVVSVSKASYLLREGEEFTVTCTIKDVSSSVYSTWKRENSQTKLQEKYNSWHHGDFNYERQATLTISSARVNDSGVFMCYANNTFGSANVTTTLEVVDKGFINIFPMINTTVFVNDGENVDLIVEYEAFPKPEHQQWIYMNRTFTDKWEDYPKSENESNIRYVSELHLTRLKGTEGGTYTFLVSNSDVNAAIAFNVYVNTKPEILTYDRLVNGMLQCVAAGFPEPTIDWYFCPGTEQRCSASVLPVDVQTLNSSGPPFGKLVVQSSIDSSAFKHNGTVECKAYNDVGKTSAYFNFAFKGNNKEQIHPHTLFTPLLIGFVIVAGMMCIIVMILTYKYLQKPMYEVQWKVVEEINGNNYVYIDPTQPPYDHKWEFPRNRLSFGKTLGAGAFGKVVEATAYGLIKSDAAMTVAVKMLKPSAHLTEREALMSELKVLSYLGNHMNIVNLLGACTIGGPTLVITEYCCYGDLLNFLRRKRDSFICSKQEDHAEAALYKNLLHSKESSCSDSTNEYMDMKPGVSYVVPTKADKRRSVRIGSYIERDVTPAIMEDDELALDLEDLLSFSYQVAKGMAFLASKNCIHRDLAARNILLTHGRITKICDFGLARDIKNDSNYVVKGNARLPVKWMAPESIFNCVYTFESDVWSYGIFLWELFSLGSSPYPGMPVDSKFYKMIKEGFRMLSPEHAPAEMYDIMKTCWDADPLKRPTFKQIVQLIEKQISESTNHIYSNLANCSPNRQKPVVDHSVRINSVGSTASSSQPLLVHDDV
CDK11B, sequence (P21127 whole entry): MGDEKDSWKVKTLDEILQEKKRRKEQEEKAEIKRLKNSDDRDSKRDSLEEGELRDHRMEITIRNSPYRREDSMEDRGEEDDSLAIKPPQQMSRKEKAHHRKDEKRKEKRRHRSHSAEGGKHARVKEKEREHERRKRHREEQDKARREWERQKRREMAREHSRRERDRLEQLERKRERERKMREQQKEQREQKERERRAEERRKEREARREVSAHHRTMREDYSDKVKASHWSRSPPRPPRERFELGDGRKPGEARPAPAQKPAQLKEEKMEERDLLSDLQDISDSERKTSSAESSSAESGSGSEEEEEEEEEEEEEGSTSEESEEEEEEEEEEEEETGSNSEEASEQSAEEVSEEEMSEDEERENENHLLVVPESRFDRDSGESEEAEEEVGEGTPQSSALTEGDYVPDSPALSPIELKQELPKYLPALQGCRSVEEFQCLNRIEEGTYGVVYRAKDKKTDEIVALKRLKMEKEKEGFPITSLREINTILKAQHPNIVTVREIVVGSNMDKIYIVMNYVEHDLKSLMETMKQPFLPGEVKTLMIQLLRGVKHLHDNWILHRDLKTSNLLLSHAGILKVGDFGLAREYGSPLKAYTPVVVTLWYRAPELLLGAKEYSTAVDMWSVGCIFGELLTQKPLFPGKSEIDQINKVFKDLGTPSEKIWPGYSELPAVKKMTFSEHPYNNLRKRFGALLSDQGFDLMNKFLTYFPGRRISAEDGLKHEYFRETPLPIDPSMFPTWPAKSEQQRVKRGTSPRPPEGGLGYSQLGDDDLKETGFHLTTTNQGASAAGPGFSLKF

For the compound `CCN1CCN(Cc2ccc(Nc3nc4ccc(Oc5ccnc(NC(C)=O)c5)c5c4n3CCC5)cc2C(F)(F)F)CC1` [Compound I-1, N-(4-((2-((4-((4-ethylpiperazin-1-yl)methyl)-3-(trifluoromethyl)phenyl)amino)-5,6-dihydro-4H-imidazo [4,5,1-ij]quinolin-7-yl)oxy)pyridin-2-yl) acetamide], the half-life in [1] worked out at 16.7 min. Moreover, the IC50 in series [2] amounted to 278 nM; in series [3], 820 nM; in series [4], 290 nM; in series [5], 30 nM. For the same compound, the remaining binding at 1 µM in series [6] was 0%; in series [7], 1%; in [8], 0.75%; in [9] it was 5.5%; in [10], 2%; in [11], 0.1%. Besides, the remaining binding at 1 µM in [12] was found to be 0.2%; in series [13] it was 0%; in series [14] it was 1.3%; in [15], 0.3%.
Regarding `CC(=O)Nc1cc(Oc2ccc3nc(Nc4ccc(Cl)c(C(F)(F)F)c4)n4c3c2CCC4)ccn1` [Compound I-3, N-(4-((2-((4-chloro-3-(trifluoromethyl)phenyl)amino)-5,6-dihydro-4H-imidazo[4,5,1-ij]quinolin-7-yl)oxy)pyridin-2-yl)acetamide], in series [3], the IC50 is over 10000 nM.
The same measure, in the same setting: the result for `CCN1CCN(Cc2cc(Nc3nc4ccc(Oc5ccnc(NC(C)=O)c5)c5c4n3CCC5)cc(C(F)(F)F)c2)CC1` [Compound I-4, N-(4-((2-((3-((4-ethylpiperazin-1-yl)methyl)-5-(trifluoromethyl)phenyl)amino)-5,6-dihydro-4H-imidazo[4,5,1-ij]quinolin-7-yl)oxy)pyridin-2-yl)acetamide] reads 1810 nM.
Regarding `CC(=O)Nc1cc(Oc2ccc3nc(Nc4ccc(CN5CCN(C)CC5)cc4)n4c3c2CCC4)ccn1` [Compound I-5, N-(4-((2-((4-((4-methylpiperazin-1-yl)methyl)phenyl)amino)-5,6-dihydro-4H-imidazo[4,5,1-ij]quinolin-7-yl)oxy)pyridin-2-yl)acetamide], in series [3], the IC50 was 5940 nM.
Still for that read-out and setting: the result for `CC(=O)Nc1cc(Oc2ccc3nc(Nc4ccc(F)cc4F)n4c3c2CCC4)ccn1` [Compound I-6, N-(4-((2-((2,4-difluorophenyl)amino)-5,6-dihydro-4H-imidazo[4,5,1-ij]quinolin-7-yl)oxy)pyridin-2-yl)acetamide] reads 1820 nM; that for `CC(=O)Nc1cc(Oc2ccc3nc(Nc4cc(-n5cnc(C)c5)cc(C(F)(F)F)c4)n4c3c2CCC4)ccn1` [Compound I-7, N-(4-((2-((3-(4-methyl-1H-imidazol-1-yl)-5-(trifluoromethyl)phenyl)amino)-5,6-dihydro-4H-imidazo[4,5,1-ij]quinolin-7-yl)oxy)pyridin-2-yl)acetamide], 4560 nM; that for `CC(=O)Nc1cc(Oc2ccc3nc(Nc4cc(N5CCN(C)CC5)cc(C(F)(F)F)c4)n4c3c2CCC4)ccn1` [Compound I-8, N-(4-((2-((3-(4-methylpiperazin-1-yl)-5-(trifluoromethyl)phenyl)amino)-5,6-dihydro-4H-imidazo[4,5,1-ij]quinolin-7-yl)oxy)pyridin-2-yl)acetamide], 9930 nM.
Take `CC(=O)Nc1cc(Oc2ccc3nc(Nc4ccc(CN5CCC(N(C)C)C5)c(C(F)(F)F)c4)n4c3c2CCC4)ccn1` (stereo not shown) [Compound I-9, N-(4-((2-((4-((3-(dimethylamino)pyrrolidin-1-yl)methyl)-3-(trifluoromethyl)phenyl)amino)-5,6-dihydro-4H-imidazo[4,5,1-ij]quinolin-7-yl)oxy)pyridin-2-yl)acetamide]: in [3], the IC50 was 1770 nM.
Same read-out and setting: then `CC(=O)Nc1cc(Oc2ccc3nc(Nc4cc(C(C)(C)C)nn4-c4ccc(C)cc4)n4c3c2CCC4)ccn1` [Compound I-10, N-(4-((2-((3-(tert-butyl)-1-(p-tolyl)-1H-pyrazol-5-yl)amino)-5,6-dihydro-4H-imidazo[4,5,1-ij]quinolin-7-yl)oxy)pyridin-2-yl)acetamide], with over 10000 nM.
For the compound `CC(=O)Nc1cc(Oc2ccc3nc(Nc4ccc(OC5CCN(C)CC5)c(C(F)(F)F)c4)n4c3c2CCC4)ccn1` [Compound I-11, N-(4-((2-((4-((1-methylpiperidin-4-yl)oxy)-3-(trifluoromethyl)phenyl)amino)-5,6-dihydro-4H-imidazo[4,5,1-ij]quinolin-7-yl)oxy)pyridin-2-yl)acetamide], the IC50 in series [3] is 3680 nM.
Turning to `N#CC[C@H](C1CCCC1)n1cc(-c2ncnc3[nH]ccc23)cn1` [Ruxolitinib], in [16], the IC50 is over 20000 nM.
